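A five-concentration, 48-hour dose response in 96-well plates underlies each endpoint, interpolated linearly between surrounding concentrations. At the GI50, growth is halved.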 The source made the active and inactive calls. Cut-off read from the data, not from the text of the source: active = GI50 up to about 1.1 µM and inactive = higher.
Assays:
Test in all cases: growth of human tumour cells (NCI), 48 h
SK-MEL-2 = tested on: SK-MEL-2
NCI-H460 = tested on: NCI-H460
RXF 393 = tested on: RXF 393
OVCAR-5 = tested on: OVCAR-5
NCI-H522 = tested on: NCI-H522
SK-MEL-28 = tested on: SK-MEL-28
U-251 = tested on: U-251
SNB-78 = tested on: SNB-78
HOP-62 = tested on: HOP-62
HOP-92 = tested on: HOP-92
OVCAR-3 = tested on: OVCAR-3
KM-20L2 = tested on: KM-20L2
A498 = tested on: A498
SK-MEL-5 = tested on: SK-MEL-5
K562 = tested on: K562
SNB-19 = tested on: SNB-19
SF-539 = tested on: SF-539
NCI-H226 = tested on: NCI-H226
HCC 2998 = tested on: HCC 2998
M14 = tested on: M14
SF-268 = tested on: SF-268
OVCAR-4 = tested on: OVCAR-4
HOP-18 = tested on: HOP-18
IGROV-1 = tested on: IGROV-1
CAKI-1 = tested on: CAKI-1
LXFL 529 = tested on: LXFL 529
SF-295 = tested on: SF-295
SNB-75 = tested on: SNB-75
OVCAR-8 = tested on: OVCAR-8
UO-31 = tested on: UO-31
HCT-116 = tested on: HCT-116
SK-OV-3 = tested on: SK-OV-3
SN12C = tested on: SN12C
COLO 205 = tested on: COLO 205
ACHN = tested on: ACHN
HT-29 = tested on: HT-29
LOX IMVI = tested on: LOX IMVI
EKVX = tested on: EKVX
SW-620 = tested on: SW-620
UACC-62 = tested on: UACC-62
CCRF-CEM = tested on: CCRF-CEM
A549 = tested on: A549
UACC-257 = tested on: UACC-257
Malme-3M = tested on: Malme-3M
DMS-273 = tested on: DMS-273
HCT-15 = tested on: HCT-15
NCI-H23 = tested on: NCI-H23
KM12 = tested on: KM12
786-0 = tested on: 786-0
M19-MEL = tested on: M19-MEL
TK-10 = tested on: TK-10
RPMI-8226 = tested on: RPMI-8226
HL-60 = tested on: HL-60
MOLT-4 = tested on: MOLT-4
SR = tested on: SR
DLD-1 = tested on: DLD-1

Compound: CCC[C@H]1O[C@@H]2CC(=O)O[C@@H]2C2=C1C(=O)C=CC2=O
- GI50 (SK-MEL-2): 20.3 µM (inactive)
- GI50 (NCI-H460): > 100 µM (inactive)
- GI50 (RXF 393): 16 µM (inactive)
- GI50 (OVCAR-5): 19.7 µM (inactive)
- GI50 (NCI-H522): 2.2 µM (inactive)
- GI50 (SK-MEL-28): 17.2 µM (inactive)
- GI50 (U-251): > 39.4 µM (inactive)
- GI50 (SNB-78): 23.3 µM (inactive)
- GI50 (HOP-62): > 54.1 µM (inactive)
- GI50 (HOP-92): 2.7 µM (inactive)
- GI50 (OVCAR-3): 14.1 µM (inactive)
- GI50 (KM-20L2): 21.4 µM (inactive)
- GI50 (A498): 34.2 µM (inactive)
- GI50 (SK-MEL-5): 20.1 µM (inactive)
- GI50 (K562): 5.09 µM (inactive)
- GI50 (SNB-19): > 60.4 µM (inactive)
- GI50 (SF-539): 19.4 µM (inactive)
- GI50 (NCI-H226): 13.7 µM (inactive)
- GI50 (HCC 2998): > 43.1 µM (inactive)
- GI50 (M14): 18.7 µM (inactive)
- GI50 (SF-268): 12.9 µM (inactive)
- GI50 (OVCAR-4): 16.3 µM (inactive)
- GI50 (HOP-18): 18 µM (inactive)
- GI50 (IGROV-1): 18 µM (inactive)
- GI50 (CAKI-1): 19.2 µM (inactive)
- GI50 (LXFL 529): 15.6 µM (inactive)
- GI50 (SF-295): 25.4 µM (inactive)
- GI50 (SNB-75): 17 µM (inactive)
- GI50 (OVCAR-8): > 47.4 µM (inactive)
- GI50 (UO-31): 18.5 µM (inactive)
- GI50 (HCT-116): 18 µM (inactive)
- GI50 (SK-OV-3): > 39.9 µM (inactive)
- GI50 (SN12C): 18.1 µM (inactive)
- GI50 (COLO 205): 3.38 µM (inactive)
- GI50 (ACHN): 13.1 µM (inactive)
- GI50 (HT-29): 22 µM (inactive)
- GI50 (LOX IMVI): 21 µM (inactive)
- GI50 (EKVX): > 44.1 µM (inactive)
- GI50 (SW-620): 11.2 µM (inactive)
- GI50 (UACC-62): 17.9 µM (inactive)
- GI50 (CCRF-CEM): 3.92 µM (inactive)
- GI50 (A549): 32.6 µM (inactive)
- GI50 (UACC-257): 18.9 µM (inactive)
- GI50 (Malme-3M): 18.2 µM (inactive)
- GI50 (DMS-273): 13.6 µM (inactive)
- GI50 (HCT-15): 15.3 µM
- GI50 (NCI-H23): 13.6 µM (inactive)
- GI50 (KM12): 23.6 µM (inactive)
- GI50 (786-0): 16.3 µM (inactive)
- GI50 (M19-MEL): 20.3 µM (inactive)
- GI50 (TK-10): > 42.8 µM (inactive)
- GI50 (RPMI-8226): 25.6 µM (inactive)
- GI50 (HL-60): 5.7 µM (inactive)
- GI50 (MOLT-4): 3.32 µM (inactive)
- GI50 (SR): 16.7 µM (inactive)
- GI50 (DLD-1): 17.7 µM (inactive)

From ChEMBL document CHEMBL1201862, “PubChem BioAssay data set” (2004)
